Patent US9771358B2, “Dihydropyrimidine compounds and their application in pharmaceuticals” (SUNSHINE LAKE PHARMA CO., LTD., priority 2014, dated 2017)

tested on: HBV; assay: In-vitro anti-HBV activity in stable HBV-producing cell line (HepG2.2.15), HBV DNA by qPCR; type: cell-based; settings: Hepatitis B virus, 168 h; HepG2.2.15 cells, HBV DNA in culture fluid, day 7, top concentration 16.4 μM
Description: HBV DNA contents in cell culture fluid were detected by the qPCR-based assay and 50% effective concentration (EC50) values of the compounds against HBV were calculated. Specific procedures are as follows:
HepG2.2.15 cells were seeded into each well of 96-well plates, 40,000 cells per well. Cells were treated with cell culture medium containing compounds with different concentrations for 24 hours after cell seeding. The final concentration of each compound was 16.4 μM in each well and each compound was diluted to desired concentration using 3-fold gradient dilution protocol, 9 diluted points in duplicate. The culture mediums containing the compounds were refreshed on day 4 post cell seeding. Culture media were collected from the HepG2.2.15 plates on day 7 post cell seeding followed by HBV DNA extraction.
HBV DNA extraction: The HBV DNA extraction was performed using QIAamp 96 DNA Blood Kit (QIAGEN 51161).
PCR for quantification: PCR mix was prepared according to PCR system. PCR mix was dispensed to 96-well optical reaction plates (special for quantification). The standard diluted proportionally was added. Then the sample was added; The plates were sealed with optical adhesive film; PCR system was performed according to programs.
Percentage of HBV inhibition of DNA replication by compound was calculated using the following equation: % Inh.=[1-HBV DNA quantity of sample/HBV DNA quantity of DMSO control]×100.
Calculating EC50 value of compounds to HBV replication: the EC50 values were calculated based on “four-parameter logistic equation” and using GraphPad Prism 5 analysis software.

Question: Which EC50 does the source give for CCOC(=O)C1=C(CN2CCO[C@H](CC(C)C(=O)O)C2)NC(c2nccs2)=N[C@H]1c1ccc(F)cc1Br (stereo partly drawn) [Example 3, 3-((R)-4-(((R)-6-(2-Bromo-4-fluorophenyl)-5-(ethoxycarbonyl)-2-(thiazol-2-yl)-3,6-dihydropyrimidin-4-yl)methyl)morpholin-2-yl)-2-methylpropanoic acid] here?
Answer: Its EC50 is 135 nM.

Question: Which EC50 does the source give for CCOC(=O)C1=C(CN2CCO[C@@H](CCC(=O)O)C2)NC(c2nccs2)=N[C@H]1c1ccc(F)cc1Br [Example 21, 3-((S)-4-(((R)-6-(2-Bromo-4-fluorophenyl)-5-(ethoxycarbonyl)-2-(thiazol-2-yl)-3,6-dihydropyrimidin-4-yl)methyl)morpholin-2-yl)propanoic acid] here?
Answer: Its EC50 is 93.6 nM.

Question: With CCOC(=O)C1=C(CN2CCOCC2CCC(=O)O)NC(c2nccs2)=NC1c1ccc(F)cc1Cl (racemic) [contrast 7, 3-(4-((6-(2-chloro-4-fluorophenyl)-5-(ethoxycarbonyl)-2-(thiazol-2-yl)-3,6-dihydropyrimidin-4-yl)methyl)morpholin-3-yl)propanoic acid, reference compound] as the compound, how does the EC50 read?
Answer: Its EC50 is 92 nM.

Question: Which EC50 does the source give for COC(=O)C1=C(CN2CCO[C@H](CCC(=O)O)C2)NC(c2nccs2)=N[C@@H]1c1ccc(F)cc1Cl [Example 39, 3-((R)-4-(((S)-6-(2-Chloro-4-fluorophenyl)-5-(methoxycarbonyl)-2-(thiazol-2-yl)-3,6-dihydropyrimidin-4-yl)methyl)morpholin-2-yl)propanoic acid] here?
Answer: Its EC50 is over 15200 nM.

Question: For COC(=O)C1=C(CN2CCO[C@@H](CCC(=O)O)C2)NC(c2nccs2)=N[C@H]1c1ccc(Cl)cc1Cl [Example 26, 3-((S)-4-(((R)-6-(2,4-Dichlorophenyl)-5-(methoxycarbonyl)-2-(thiazol-2-yl)-3,6-dihydropyrimidin-4-yl)methyl)morpholin-2-yl)propanoic acid], which EC50 is on record?
Answer: Its EC50 is 82 nM.

Question: For COC(=O)C1=C(CN2CCO[C@@H](CCC(=O)O)C2)NC(c2nccs2)=N[C@H]1c1ccc(F)cc1Br [Example 22, 3-((S)-4-(((R)-6-(2-Bromo-4-fluorophenyl)-5-(methoxycarbonyl)-2-(thiazol-2-yl)-3,6-dihydropyrimidin-4-yl)methyl)morpholin-2-yl)propanoic acid], which EC50 is on record?
Answer: The EC50 was 89 nM.

Question: COC(=O)C1=C(CN2CCO[C@H](CCC(=O)O)C2)NC(c2nccs2)=N[C@@H]1c1ccc(F)cc1Br [Example 41, 3-((R)-4-(((S)-6-(2-Bromo-4-fluorophenyl)-5-(methoxycarbonyl)-2-(thiazol-2-yl)-3,6-dihydropyrimidin-4-yl)methyl)morpholin-2-yl)propanoic acid] was tested. Which EC50 did it give?
Answer: The EC50 was over 12800 nM.

Question: With CCOC(=O)C1=C(CN2CCO[C@H](CCC(=O)O)C2)NC(c2nccs2)=N[C@@H]1c1ccc(F)cc1Cl [Example 37, 3-((R)-4-(((S)-6-(2-Chloro-4-fluorophenyl)-5-(ethoxycarbonyl)-2-(thiazol-2-yl)-3,6-dihydropyrimidin-4-yl)methyl)morpholin-2-yl)propanoic acid] as the compound, how does the EC50 read?
Answer: Its EC50 is over 16400 nM.

Question: With CCOC(=O)C1=C(CN2CCO[C@H](C(C)CC(=O)O)C2)NC(c2nccs2)=N[C@H]1c1ccc(F)cc1Br (stereo partly drawn) [Example 4, 3-((R)-4-(((R)-6-(2-Bromo-4-fluorophenyl)-5-(ethoxycarbonyl)-2-(thiazol-2-yl)-3,6-dihydropyrimidin-4-yl)methyl)morpholin-2-yl)butanoic acid] as the compound, how does the EC50 read?
Answer: The EC50 was 116 nM.

Question: With COC(=O)C1=C(CN2CCOC[C@@H]2CCC(=O)O)NC(c2nccs2)=N[C@H]1c1ccc(Cl)cc1Cl [Example 20, 3-((S)-4-(((R)-6-(2,4-Dichlorophenyl)-5-(methoxycarbonyl)-2-(thiazol-2-yl)-3,6-dihydropyrimidin-4-yl)methyl)morpholin-3-yl)propanoic acid] as the compound, how does the EC50 read?
Answer: Its EC50 is 5.5 nM.

Question: Which EC50 does the source give for CCOC(=O)C1=C(CN2CCOC[C@H]2CCC(=O)O)NC(c2nccs2)=N[C@@H]1c1ccc(F)cc1Br [Example 47, 3-((R)-4-(((S)-6-(2-Bromo-4-fluorophenyl)-5-(ethoxycarbonyl)-2-(thiazol-2-yl)-3,6-dihydropyrimidin-4-yl)methyl)morpholin-3-yl)propanoic acid] here?
Answer: Its EC50 is over 16400 nM.

Question: Which EC50 does the source give for COC(=O)C1=C(CN2CCOCC2CCC(=O)O)NC(c2nccs2)=NC1c1ccc(F)cc1Cl (racemic) [contrast 8, 3-(4-((6-(2-chloro-4-fluorophenyl)-5-(methoxycarbonyl)-2-(thiazol-2-yl)-3,6-dihydropyrimidin-4-yl)methyl)morpholin-3-yl)propanoic acid, reference compound] here?
Answer: Its EC50 is 90 nM.

Question: Which EC50 does the source give for COC(=O)C1=C(CN2CCOC[C@@H]2CCC(=O)O)NC(c2nccs2)=N[C@@H]1c1ccc(F)cc1Br [Example 50, 3-((S)-4-(((S)-6-(2-Bromo-4-fluorophenyl)-5-(methoxycarbonyl)-2-(thiazol-2-yl)-3,6-dihydropyrimidin-4-yl)methyl)morpholin-3-yl)propanoic acid] here?
Answer: Its EC50 is over 10900 nM.

Question: For COC(=O)C1=C(CN2CCOC[C@H]2CCC(=O)O)NC(c2nccs2)=N[C@H]1c1ccc(F)cc1Br [Example 14, 3-((R)-4-(((R)-6-(2-Bromo-4-fluorophenyl)-5-(methoxycarbonyl)-2-(thiazol-2-yl)-3,6-dihydropyrimidin-4-yl)methyl)morpholin-3-yl)propanoic acid], which EC50 is on record?
Answer: Its EC50 is 140 nM.

Question: Which EC50 does the source give for COC(=O)C1=C(CN2CCOC[C@@H]2CCC(=O)O)NC(c2nccs2)=N[C@H]1c1ccc(F)cc1Br [Example 16, 3-((S)-4-(((R)-6-(2-Bromo-4-fluorophenyl)-5-(methoxycarbonyl)-2-(thiazol-2-yl)-3,6-dihydropyrimidin-4-yl)methyl)morpholin-3-yl)propanoic acid] here?
Answer: The EC50 was 9 nM.

Question: For CCOC(=O)C1=C(CN2CCOC[C@@H]2CCC(=O)O)NC(c2nccs2)=N[C@H]1c1ccc(F)cc1Br [Example 15, 3-((S)-4-(((R)-6-(2-Bromo-4-fluorophenyl)-5-(ethoxycarbonyl)-2-(thiazol-2-yl)-3,6-dihydropyrimidin-4-yl)methyl)morpholin-3-yl)propanoic acid], which EC50 is on record?
Answer: The EC50 was 7.94 nM.

Question: For CCOC(=O)C1=C(CN2CCOCC2CCC(=O)O)NC(c2nccs2)=NC1c1ccc(F)cc1Br (racemic) [contrast 11, 3-(4-((6-(2-bromo-4-fluorophenyl)-5-(ethoxycarbonyl)-2-(thiazol-2-yl)-3,6-dihydropyrimidin-4-yl)methyl)morpholin-3-yl)propanoic acid, reference compound], which EC50 is on record?
Answer: Its EC50 is 80 nM.

Question: Which EC50 does the source give for CCOC(=O)C1=C(CN2CCO[C@@H](CCC(=O)O)C2)NC(c2nccs2)=N[C@@H]1c1ccc(Cl)cc1Cl [Example 44, 3-((S)-4-(((S)-6-(2,4-Dichlorophenyl)-5-(ethoxycarbonyl)-2-(thiazol-2-yl)-3,6-dihydropyrimidin-4-yl)methyl)morpholin-2-yl)propanoic acid] here?
Answer: The EC50 was over 14900 nM.

Question: For COC(=O)C1=C(CN2CCOCC2CCC(=O)O)NC(c2nccs2)=NC1c1ccc(Cl)cc1Cl (racemic) [contrast 10, 3-(4-((6-(2,4-dichlorophenyl)-5-(methoxycarbonyl)-2-(thiazol-2-yl)-3,6-dihydropyrimidin-4-yl)methyl)morpholin-3-yl)propanoic acid, reference compound], which EC50 is on record?
Answer: The EC50 was 59 nM.

Question: How did the EC50 turn out when CCOC(=O)C1=C(CN2CCOCC2CCC(=O)O)NC(c2nccs2)=NC1c1ccc(Cl)cc1Cl (racemic) [contrast 9, 3-(4-((6-(2,4-dichlorophenyl)-5-(ethoxycarbonyl)-2-(thiazol-2-yl)-3,6-dihydropyrimidin-4-yl)methyl)morpholin-3-yl)propanoic acid, reference compound] was run?
Answer: Its EC50 is 63 nM.

Question: With CCOC(=O)C1=C(CN2CCOC[C@@H]2CCC(=O)O)NC(c2nccs2)=N[C@H]1c1ccc(F)cc1Cl [Example 17, 3-((S)-4-(((R)-6-(2-Chloro-4-fluorophenyl)-5-(ethoxycarbonyl)-2-(thiazol-2-yl)-3,6-dihydropyrimidin-4-yl)methyl)morpholin-3-yl)propanoic acid] as the compound, how does the EC50 read?
Answer: The EC50 was 12 nM.

Question: How did the EC50 turn out when CCOC(=O)C1=C(CN2CCOC[C@H]2CCC(=O)O)NC(c2nccs2)=N[C@H]1c1ccc(F)cc1Br [Example 8, 3-((R)-4-(((R)-6-(2-Bromo-4-fluorophenyl)-5-(ethoxycarbonyl)-2-(thiazol-2-yl)-3,6-dihydropyrimidin-4-yl)methy)morpholin-3-yl)propanoic acid] was run?
Answer: Its EC50 is 25 nM.

Question: With COC(=O)C1=C(CN2CCOC(CCC(=O)O)C2)NC(c2nccs2)=NC1c1ccc(Cl)cc1Cl (racemic) [contrast 6, 3-(4-((6-(2,4-dichlorophenyl)-5-(methoxycarbonyl)-2-(thiazol-2-yl)-3,6-dihydropyrimidin-4-yl)methyl)morpholin-2-yl)propanoic acid, reference compound] as the compound, how does the EC50 read?
Answer: The EC50 was 210 nM.

Question: For CCOC(=O)C1=C(CN2CCO[C@@H](CCC(=O)O)C2)NC(c2nccs2)=N[C@@H]1c1ccc(F)cc1Br [Example 36, 3-((S)-4-(((S)-6-(2-Bromo-4-fluorophenyl)-5-(ethoxycarbonyl)-2-(thiazol-2-yl)-3,6-dihydropyrimidin-4-yl)methyl)morpholin-2-yl)propanoic acid], which EC50 is on record?
Answer: Its EC50 is over 14500 nM.

same assay, conditions: Hepatitis B virus, HepG2.2.15; isomers of compound of formular (II)

Question: CCOC(=O)C1=C(CN2CCO[C@H](CCC(=O)O)C2)NC(c2nccs2)=N[C@@H]1c1ccc(F)cc1Cl [Example M3] was tested. Which EC50 did it give?
Answer: Its EC50 is over 16400 nM.

Question: How did the EC50 turn out when CCOC(=O)C1=C(CN2CCO[C@@H](CCC(=O)O)C2)NC(c2nccs2)=N[C@@H]1c1ccc(F)cc1Cl [Example M4] was run?
Answer: The EC50 was over 16400 nM.
